Test results taken from paper PMC11429051, “The Effect of Maturity Stage on Polyphenolic Composition, Antioxidant and Anti-Tyrosinase Activities of Ficus rubiginosa Desf. ex Vent. Extracts” (Antioxidants, 2024).
In brackets after ≈: the same amount, converted by molar mass.

Target: T1, mushroom tyrosinase
T1 construct: gene PPO3
Test: L-DOPA oxidation, absorbance at […] nm after […] min
Assay type: biochemical
Conditions: 0.1 M L-DOPA solution (300 µL in 610 µL assay), 0.05 M phosphate pH 6.8, room temperature, 10 min preincubation

IC50: 5.38 µg/mL (≈ 8.81 µM)
SMILES: C[C@@H]1O[C@@H](OC[C@H]2O[C@@H](Oc3c(-c4ccc(O)c(O)c4)oc4cc(O)cc(O)c4c3=O)[C@H](O)[C@@H](O)[C@@H]2O)[C@H](O)[C@H](O)[C@H]1O [rutin]
